“Also recorded” adds a separate entry of the source.
Legend:
Assay type in all cases: cell-based
[1] = tested on: astrocytes differentiated from human stem cells (hPSCs); assay: MeHg toxicity on astrocytes in the nerve chip, immunostaining with GFAP and S100B; conditions: 3 hours
Method: (§1) It was assessed whether neurotoxicity can be evaluated by a noticeable biomimetic nerve chip of the present invention in which an in vivo environment similar to physiological characteristics of the nervous system was constructed. First, methylmercury chloride (MeHg), a representative environmental toxic substance known to pass through the brain barrier regardless of a structure of the brain barrier and to have neurotoxicity, was selected as a toxic substance for treatment. The neurotoxicity evaluation was conducted by treating a chip having only neurons cultured and a chip having neurons and astrocytes co-cultured, with MeHg at various concentrations (0 μM, 1 μM, 5 μM, 10 μM) for 3 hours and then examining the cell response changes according to the MeHg time and concentration through real-time live cell imaging and immunocytochemistry, and then the functionality of the biomimetic nerve chip as a drug toxicity evaluation platform was assessed (FIGS. 8 to 10).
On the basis of the assertion that this S100B increase is associated with CNS damage, immunostaining was performed using GFAP and S100B, which were used as markers for brain damage due to metal-induced neurotoxicity, in order to identify astrocytes and examine the response of astrocytes in the MeHg detection (FIG. 9C).

[2] = tested on: neurons differentiated from human stem cells (hPSCs) (Neurosight-S); assay: MeHg neurotoxicity on neurons cultured alone in the biomimetic nerve chip, Calcein-AM live cell imaging
Method: Neurons differentiated from human stem cells (hPSCs) were secured through neurons (Neurosight-S) by NEXEL. A stock was thawed and injected immediately into the chip. The neurons were prepared at an appropriate concentration for injection of 15×10^4 cells/6 μL, loaded into the neuron inlet included in the nerve chip of the present invention, and injected into the neuron chamber passing through the neuron channel. The bottom of the neuron chamber was coated with Matrigel, which was three times more concentrated than usual, for stable attachment in the chip, and the neurons were cultured in Neurosight-S medium supplemented with Supplement (100×) for 3 days during which neurites can be formed.
(§2) The injection of cells was conversely conducted. Human stem cell-derived neurons (Neurosight-S) were preferentially injected, wherein the neurons were prepared at an appropriate concentration for injection of 15×10^4 cells/6 μL, load into the neuron inlet, and injected into the neuron chamber. Human stem cell-derived astrocytes were prepared at an appropriate concentration for injection of 15×10^4 cells/6 μL, and nozzles of syringes each carrying 30 μL were connected to the astrocyte inlets, and the astrocytes were injected into the two astrocyte chambers by using a syringe pump.
as §1
Most of the neurons in the control group formed neurite networks while having intact cell bodies and neurites.
The MeHg treatment concentrations were set to 1 μM, 5 μM, and 10 μM, and similarly, the viability of neurons was examined in real time through Calcein-AM.

[3] = tested on: astrocytes differentiated from human stem cells (hPSCs); assay: MeHg toxicity on astrocytes cultured in the nerve chip, Calcein-AM live cell imaging
Text: Astrocytes, differentiated from human stem cells (hPSCs), were secured by direct differentiation. Human stem cells (hPSCs) were maintained through culture and passage by using TeSr-E8 medium in a Matrigel-coated culture dish, and for differentiation into neurons, neural progenitor cells (NPCs) were first prepared. The stem cell colonies were detached using […], and then embryoid bodies (EBs) were formed using DMEM/F12 medium containing 20% knock out serum replacement, 1% nonessential amino acids, 55 μM β-mercaptoethanol, 10 μM SB431542, and 5 μM DMH1, and then again attached to a Matrigel-coated culture dish to form neural rosettes in DMEM/F12 medium containing 1% N2 supplement, […] insulin, and 20 ng/mL basic fibroblast growth factor. Only the center of the rosettes was separated using a thinly drawn Pasteur pipette, and then cultured in DMEM/F12 medium containing 1% N2 supplement, 20 ng/mL basic fibroblast growth factor, and 20 ng/mL epidermal growth factor to secure NPCs. The secured NPCs were again attached to a Matrigel-coated culture dish at a density of 2.8×10^3 cells/cm, and cultured in DMEM/F12 medium containing 1% N2 supplement, 2% vitamin A-removed B27 supplement, 10 ng/mL bone morphogenetic protein-4, 10 ng/mL ciliary neurotrophic factor, and 10 ng/mL leukemia inhibitory factor to thereby obtain finally differentiated astrocytes. […]
as §1, with “First, methylmercury chloride (MeHg), a representative environmental toxic substance known to pass through the brain barrier regardless of a structure of the brain barrier and to have neurotoxicity, was selected as a toxic substance for treatment.” left out

[4] = tested on: neurons co-cultured with astrocytes (human stem cell-derived); assay: MeHg neurotoxicity on neurons co-cultured with astrocytes in the nerve chip (astrocyte neuroprotection), Calcein-AM and MAP2
Method: as §2, §1
Finally, it was examined whether there was a neuroprotective function from the neurotoxicity of MeHg depending on the presence or absence of astrocytes inside the biomimetic nerve chip. MeHg treatment was conducted under two conditions in which […] were cultured alone and neurons and astrocytes were co-cultured, and the cell viability was evaluated in real time according to the time and concentration changes by using Calcein-AM (FIGS. 10A to 10C). […]

[5] = tested on: neurons differentiated from human stem cells (hPSCs) (Neurosight-S); assay: MeHg neurotoxicity on neurons cultured alone in the nerve chip, immunostaining with Tuj1 and MAP2; conditions: 1 μM, 5 μM and 10 μM MeHg, 3 hours
Method: as §1
The cell types can be distinguished by morphological characteristics of cells, but Calcein-AM targets all living cells regardless of the type of cells and thus cannot clearly identify the types of cells. The present inventors re-examined whether the neurons were damaged at the same extent by MeHg, through immunostaining using Tuj1 and MAP2 antibodies targeting only neurons (FIG. 8C).

[6] = as the concentration of MeHg increased (1, 5, 10 μM)
[7] = in the presence of astrocytes, MeHg 1, 5, 10 μM, 3 hours

## [CH3][Hg][Cl] [MeHg, methylmercury chloride]
[1]; [6]
  GFAP expression signal in astrocytes: the GFAP signal decreased
  S100B expression signal in astrocytes: the S100B signal increased
[1]; astrocytes, MeHg 1, 5, 10 μM
  viability of astrocytes, immunostaining: the viability of astrocytes was not changed
[2]; 1 μM MeHg, after 3 hours
  viability and morphology of neurons (neurites), Calcein-AM: some neurites endured neurotoxicity of MeHg without damage to maintain the state thereof
[2]; 5 μM MeHg, after 3 hours
  viability and morphology of neurons (neurites), Calcein-AM: the neurites almost completely disappeared, leaving only fragmented fragments and only a form of cell bodies; also recorded: neurites disappeared and only the cell bodies remained
[2]; 5 μM MeHg, until 2 hours after treatment
  viability and morphology of neurons (neurites), Calcein-AM: the neurites maintained the state thereof with deterioration little by little without any significant change
[2]; 10 μM MeHg, 1-hour intervals for 3 hours
  Calcein-AM signal of neurons over time: most of the Calcein-AM signals started to rapidly decrease 2 hours after MeHg treatment
[2]; 10 μM MeHg, after 3 hours
  viability and morphology of neurons (neurites, cell bodies), Calcein-AM: even the fluorescence signal of the remaining cell bodies was greatly reduced
[3]; MeHg 1, 5, 10 μM, 3 hours
  degree of morphological change of astrocytes according to concentration, Calcein-AM: no significant difference in the degree of morphological change due to cell aggregation regardless of the concentration
[3]; MeHg 1, 5, 10 μM, up to 3 hours
  cell viability of astrocytes, Calcein-AM: no decrease in cell viability was observed
[3]; MeHg, 1-hour intervals for 3 hours
  morphological changes of astrocytes over time, Calcein-AM: morphological changes of astrocytes due to cell aggregation were observed over time
[4]; [7]
  Calcein-AM signal of neurons according to concentration: maintained without any decrease
  MAP2 signal of neurons according to concentration: maintained without any decrease
[4]; neurons co-cultured with astrocytes, 10 μM MeHg, until 3 hours after treatment
  viability and morphological changes of neurons over time, Calcein-AM: no significant changes were observed, except for a few strands of neurites that partially disappeared
[5]
  damage to neurons, immunostaining Tuj1 and MAP2: the damage to cells increased as the concentration increased

Reference: patent US20230011800A1, “[…] CHIP FOR […] AND TOXICITY ON NERVE, AND USE THEREOF” (CHA UNIVERSITY INDUSTRY-ACADEMIC COOPERATION FOUNDATION, priority 2019, published 2023)
